Consider three compounds from patent US20090104265A1, “Polymorphs of N-(4-chloro-3-methyl-5-isoxazolyl) 2-[2-methyl-4,5-(methylenedioxy)phenylacetyl] thiophene-3-sulfonamide, sodium salt” (priority 2006, published 2009).

The nature of data set [1]: Moisture sorption/desorption (moisture balance). In kind it is physicochemical. As to conditions: for weight loss at 5% RH: sample not dried prior to analysis; for hygroscopicity: based on moisture sorption/desorption data. On the procedure:
The moisture sorption/desorption data was collected on a VT SGA-100 moisture balance system. […] The sample was not dried prior to analysis. Equilibrium criteria used for analysis was less than 0.0100% weight change in 5 minutes with a maximum equilibration time of 3 hours if the weight criterion was not met. Data was not corrected for the initial moisture content of the samples.

The conditions of data set [2]: ambient temperature, sodium salt.
The nature of data set [3]: physchem. As to conditions: thermodynamic from solid, SOLUBILITY (mg/mL), ambient temperature.
The nature of data set [4]: Interconversion studies of Forms A and B. In kind it is physicochemical. From the text:
The interconversion of Forms A and B were preformed using ethyl acetate and 95% isopropanol:water. […] The interconversions in ethyl acetate yielded a mixture of Forms A and B, which is probably due to the low solublility of the materials.

Setting [5] is: listed as Sample lot I Form A, sodium salt.
The mark [6] stands for this setting: listed as Sample lot III Form A, sodium salt.
Setting [7] is: listed as Sample lot IV Form A, sodium salt.

Each structure is given as a SMILES string. Entries after “also recorded” stand apart in the source; their conditions may differ. Like-named read-outs stand apart in the source and are kept apart here. Some results are limits rather than exact numbers.

`Cc1cc2c(cc1CC(=O)c1sccc1S(=O)(=O)Nc1onc(C)c1Cl)OCO2.[Na]` [Amorphous, N-(4-chloro-3-methyl-5-isoxazolyl)-2-[2-methyl-4,5-(methylenedioxy)phenylacetyl]thiophene-3-sulfonamide, sodium salt]: in data set [1], the “weight loss at 5% RH” value is on record as 1.4% weight loss at 5% RH, and the hygroscopicity entry is recorded as “highly hygroscopic”. The “total weight gain at 95% RH” value in data set [1] (listed as amorphous form, sodium salt) came to 22%. In addition, in data set [1] (sodium salt), the “total weight gain at 95% RH” value is on record as 22.0.% total weight gain at 95% RH.
Take `Cc1cc2c(cc1CC(=O)c1sccc1S(=O)(=O)[N-]c1onc(C)c1Cl)OCO2.[Na+]` [Form A, N-(4-chloro-3-methyl-5-isoxazolyl)-2-[2-methyl-4,5-(methylenedioxy)phenylacetyl]thiophene-3-sulfonamide, sodium salt]: the “solubility” value was above 228 mg/mL in data set [2] (N,N-dimethylformamide (DMF)); below 3 mg/mL in data set [2] (chloroform); below 3 mg/mL in data set [2] (dichloromethane); below 3 mg/mL in data set [2] (methyl t-butyl ether (MTBE)); 228 mg/mL in data set [3] (organic solvent or mixture, N,N-dimethylformamide (DMF)); 96 mg/mL in data set [3] (organic solvent or mixture, acetone). Also, the solubility in data set [3] (organic solvent or mixture, acetonitrile (ACN)) is 25 mg/mL; in data set [3] (organic solvent or mixture, chloroform), below 3 mg/mL; in data set [3] (organic solvent or mixture, dichloromethane), below 3 mg/mL; in data set [3] (organic solvent or mixture, ethanol (EtOH)), 60 mg/mL; in data set [3] (organic solvent or mixture, ethyl acetate (EtOAc)) it was 6 mg/mL; in data set [3] (organic solvent or mixture, hexanes), below 8 mg/mL. The solubility in data set [3] (organic solvent or mixture, isopropanol (IPA)) was below 4 mg/mL; in data set [3] (organic solvent or mixture, methanol (MeOH)), 160 mg/mL; in data set [3] (organic solvent or mixture, methyl ethyl ketone (MEK)) it was 34 mg/mL; in data set [3] (organic solvent or mixture, methyl t-butyl ether (MTBE)), below 3 mg/mL; in data set [3] (organic solvent or mixture, tetrahydrofuran (THF)), 86 mg/mL; in data set [3] (organic solvent or mixture, toluene) it was below 7 mg/mL. This compound came in with a solubility in data set [3] (water) of 48 mg/mL. Besides, the “relative thermodynamic stability of the forms” value is “more thermodynamically stable form” in data set [4] (interconversion in 95% isopropanol:water) and “more thermodynamically stable form” in data set [4] (interconversion studies, solvent not stated). For the same compound, in data set [4] (interconversion studies in ethyl acetate (so in the source)), the “relative stability of the forms” value is on record as “most stable form”. Also, the “weight loss at 5% RH” value is on record as 0.18% weight loss at 5% RH, in data set [1] (setting [5]), 0.04% weight loss at 5% RH, in data set [1] (setting [6]), 0.05% weight loss at 5% RH, in data set [1] (setting [7]) and “minimal weight” in data set [1] (sodium salt). In addition, the “total weight gain at 95% RH” value was 1.48% total weight gain at 95% RH in data set [1] (setting [5]), 1.08% total weight gain at 95% RH in data set [1] (setting [6]), 1.10% total weight gain at 95% RH in data set [1] (setting [7]) and “less than 1.5%” in data set [1] (sodium salt). Besides, the hygroscopicity entry in data set [1] (sodium salt) was “non-hygroscopic up to 75% RH; also recorded: nonhygroscopic”.
Turning to `Cc1cc2c(cc1CC(=O)c1sccc1S(=O)(=O)[N-]c1onc(C)c1Cl)OCO2.[Na+]` [Form B, N-(4-chloro-3-methyl-5-isoxazolyl)-2-[2-methyl-4,5-(methylenedioxy)phenylacetyl]thiophene-3-sulfonamide, sodium salt], in data set [1] (sodium salt), the “weight loss at 5% RH” value was 0.13% weight loss at 5% RH, and the “total weight gain at 95% RH” value is listed as 0.98% total weight gain at 95% RH. In data set [1] (5 to 95% RH sorption, 95 to 5% RH desorption), the “weight change during the moisture sorption/desorption experiment” value is “loses and gains minimal weight”.

Usually solubility stands for the concentration that dissolves in the medium under given conditions.
